Calls of active or inactive are those of the source.
Columns and labels:
[1] = restored growth of temperature-sensitive Burl-1 yeast – whole organism, S. cerevisiae, Burl-1 ts mutant, luminescence, counter-screen for SUMOylation pathway inhibitor project, dose response (AID 463199); assay type: functional
[2] = molecular target: G-protein coupled receptor 55 (Homo sapiens, UniProt Q9Y2T6); experiment: selective activators of receptor GPR55 – imaging, U2OS cells, beta-arrestin-GFP redistribution, primary screen (AID 1961); assay type: functional
[3] = viability of PTEN-deleted HCT116 cells – cell-based, HCT116 PTEN knockout, dose response (AID 1047); assay type: functional;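 also: HCT116 colon tumor cells with PTEN knocked out; cells exposed to compound for 60 hours before readout; potency for loss of cell viability measured by luminescence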
[4] = molecular target: Beta-2 adrenergic receptor (Homo sapiens, UniProt P07550); experiment: ADRB2 activation measured by internalization – cell-based, FAP fluorogen, flow cytometry, cherry pick 1, dose response (AID 588763); assay type: functional
[5] = viability of HCT116 lacking mutant beta-catenin – cell-based, human colon tumor, dose response (AID 1045); assay type: functional;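 also: HCT116 colon tumor cells with beta catenin knocked out; cells exposed to compound for 60 hours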
CAAX prenyl protease 2 = CAAX prenyl protease 2 (Homo sapiens, UniProt Q9Y256); experiment: inhibition of Ras-converting CAAX protease Rce1 – biochemical, yeast membranes, quenched-peptide fluorescence, cherry-pick, dose response (AID 588849)
[6] = Luminescence Cell-Based Dose Retest to Confirm Inhibitors of Cancer Stem Cells. [Related pubchem assays (depositor defined):AID2717, AID2721]; assay type: functional; details: Homo sapiens
[7] = molecular target: Voltage-dependent T-type calcium channel subunit alpha-1H (Homo sapiens, UniProt O95180); assay type: functional;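 also: channel activity triggered by adding a high calcium stimulation buffer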
[8] = Trypanosoma cruzi growth suppression in host cells – NIH3T3 host cells, beta-gal luminescence, confirmation (AID 2044); assay type: functional, cell-based;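 also: intracellular parasites grown in NIH/3T3 mouse fibroblasts as host cells; luminescent beta-galactosidase reporter signal from transgenic T. cruzi replicating inside host cells; inhibitors lower the luminescence signal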
HEK293 [9] = experiment: cells; details: Homo sapiens
[10] = NIH3T3 cell viability loss – ATP luminescence, mouse fibroblasts, counter-screen, dose response (AID 2010); assay type: functional, cell-based;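 also: cells exposed to compound for about 90 hours before reading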
HEK293 [11] = experiment: cells; details: Homo sapiens; remark: listed apart in the source
[12] = viability of uninfected HEp-2 cells – cell-based, HTS, cytotoxicity control for RSV inhibitor project, dose response (AID 2410); assay type: functional; details: human respiratory syncytial virus
Streptokinase A = molecular target: T1, Streptokinase A (Streptococcus pyogenes serotype M1, UniProt P10520); experiment: viability-normalized secreted streptokinase activity reduction – plasminogen activation absorbance, OD405, dose response (AID 1914); assay type: functional, Streptococcus pyogenes M1 GAS;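 also: secreted streptokinase activity via plasminogen activation per viability signal from cell pellet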
T1 sequence (P10520 whole entry): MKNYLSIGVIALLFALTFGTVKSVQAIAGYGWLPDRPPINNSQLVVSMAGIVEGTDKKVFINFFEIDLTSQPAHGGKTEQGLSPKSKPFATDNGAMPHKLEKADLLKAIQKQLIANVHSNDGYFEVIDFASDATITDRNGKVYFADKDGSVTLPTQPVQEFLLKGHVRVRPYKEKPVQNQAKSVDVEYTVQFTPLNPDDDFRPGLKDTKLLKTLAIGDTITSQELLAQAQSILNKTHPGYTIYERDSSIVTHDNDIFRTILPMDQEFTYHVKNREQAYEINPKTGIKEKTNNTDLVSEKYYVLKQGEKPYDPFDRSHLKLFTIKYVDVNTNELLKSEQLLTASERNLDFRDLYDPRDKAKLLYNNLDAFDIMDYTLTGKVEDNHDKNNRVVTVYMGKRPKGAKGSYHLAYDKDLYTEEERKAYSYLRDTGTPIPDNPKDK

[13] = decrease of insulin promoter-GFP reporter – imaging, high-content screening, mouse beta cells (AID 1628); assay type: functional; details: MIN6
[14] = MIN6 cell viability loss – mouse insulinoma, cytotoxicity control, dose response (AID 2122); assay type: functional;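 also: confirmatory high-throughput counterscreen run to flag cytotoxic compounds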
[15] = molecular target: Voltage-gated inwardly rectifying potassium channel KCNH2 (Homo sapiens, UniProt Q12809); experiment: concentration-dependent hERG rescue from blockers – cell-based, thallium flux, dose response (AID 2121); assay type: ADME
HEK293 [16] = experiment: EBV LMP1 TES2 canonical NF-kB signalling blockers – cell-based, HEK293, luciferase, cherry-pick, dose response (AID 588343); assay type: functional; details: Homo sapiens
Streptococcus = experiment: GAS UMAA2166 growth inhibition – luminescence, BacTiterGlo, counter-screen for streptokinase expression inhibitor project, dose response (AID 1915); assay type: functional, organism-based;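 also: potency for reduction of bacterial viability or growth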
[17] = system: Streptococcus sp. 'group A'; experiment: Streptococcus pyogenes SK(-)GAS viability under kanamycin – luminescence, BacTiterGlo, confirmation, counter-screen for streptokinase expression inhibitor project, dose response (AID 1900); assay type: functional, organism-based
A-375 [18] = experiment: proliferation inhibition in MITF-low A375 cells – cell-based, cherry-pick samples, set 2, counter-screen for MITF modulator project, dose response (AID 540335); assay type: functional; details: Homo sapiens
A-375 [19] = experiment: MITF: Counter assay: A375 proliferation Measured in Cell-Based System Using Plate Reader - 2084-03_Inhibitor_Dose_DryPowder_Activity. [Related pubchem assays (depositor defined):AID488944]; assay type: functional; details: Homo sapiens
[20] = Luminescence Cell-Based Dose Response Follow up to Identify Inhibitors of Platelet Dense Granule Release. [Related pubchem assays (depositor defined):AID1663, AID1678, AID2398]; assay type: functional
Phospholipase D1 = Phospholipase D1 (Homo sapiens, UniProt Q13393); experiment: cellular phospholipase D1 inhibition IC50 – cell-based, dose response (AID 602151); assay type: functional;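 also: cellular PLD1 assay in Calu-1 cells stimulated with PMA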
Phospholipase D2 = Phospholipase D2 (Homo sapiens, UniProt O14939); experiment: cellular phospholipase D2 inhibition IC50 – cell-based, dose response (AID 602147); assay type: functional;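 also: cellular assay in HEK293 cells overexpressing GFP-tagged PLD2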
Candida albicans = experiment: antifungal activity against resistant Candida strain – CaCi-8, fluconazole, Alamar Blue, dry powder, dose response (AID 488807); assay type: functional, organism-based
[21] = NIH-3T3 fibroblast cytotoxicity, dose response, cytotoxicity control, cell-based, fluorescence, Alamar Blue, secondary assay (AID 2327); assay type: functional;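 also: NIH-3T3 mouse fibroblasts cultured with fluconazole at 8 µg/mL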
[22] = fluconazole-exposed Candida albicans growth modulators – fluorescence, retest, confirmation (AID 2467); assay type: functional, cell-based
[23] = molecular target: Serine/threonine-protein phosphatase (Candida dubliniensis (strain CD36 / CBS 7987 / NCPF 3949 / NRRLY-17841) (Yeast), UniProt B9W6M3); experiment: blockers of CaCl2-induced CDRE-lacZ signaling – S. cerevisiae, luminescence, secondary, dose response (AID 2388); assay type: functional, cell-based;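 also: yeast reporter cells carrying a calcineurin-responsive lacZ construct stimulated with calcium chloride; luminescent beta-galactosidase reporter signal in whole cells rather than isolated phosphatase activity; potency for inhibition where a drop in reporter signal means calcineurin blockade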
[24] = molecular target: T2, Calpain-2 catalytic subunit (Sus scrofa, UniProt P43367); experiment: m-calpain protease blockers, concentration series – biochemical, fluorogenic peptide substrate, dose response (AID 1420); assay type: functional
T2 sequence (P43367 whole entry): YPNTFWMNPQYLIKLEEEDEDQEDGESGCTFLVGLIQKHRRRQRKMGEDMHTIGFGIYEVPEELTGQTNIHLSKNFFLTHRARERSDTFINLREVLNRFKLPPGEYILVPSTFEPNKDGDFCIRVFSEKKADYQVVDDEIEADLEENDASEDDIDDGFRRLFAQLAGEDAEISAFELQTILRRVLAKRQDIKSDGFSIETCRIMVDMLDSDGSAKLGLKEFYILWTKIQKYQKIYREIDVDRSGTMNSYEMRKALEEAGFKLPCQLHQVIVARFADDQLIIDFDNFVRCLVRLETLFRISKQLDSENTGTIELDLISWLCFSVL

[25] = molecular target: ATP-dependent molecular chaperone HSP82 (Candida albicans (strain WO-1) (Yeast), UniProt C4YTQ8); experiment: steroid-induced GRE reporter decrease in yeast – S. cerevisiae, luminescence, Hsp90 inhibitor project, dose response (AID 2400); assay type: functional, cell-based;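 also: beta-galactosidase luminescence from glucocorticoid response element reporter as proxy for Hsp90 function; inhibitor potency where signal loss means Hsp90 inhibition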
Mu-type opioid receptor = Mu-type opioid receptor (Homo sapiens, UniProt P35372); experiment: (§1) Counterscreen for agonists of heterodimerization of the mu 1 (OPRM1) and delta 1 (OPRD1) opioid receptors: Luminescence-based cell-based high throughput dose response assay to identify agonists of OPRM1 homodimerization.; assay type: functional
[26] = molecular target: 5-hydroxytryptamine receptor 5A (Homo sapiens, UniProt P47898); experiment: Counterscreen for agonists of OPRM1-OPRD1 heterodimerization: luminescence-based cell-based high throughput dose response assay to identify agonists of 5-hydroxytryptamine (serotonin) 5A receptor (HTR5A). [Related pubchem assays (depositor defined):AID504326, AID504355, AID504692, AID504904, AID504905]; assay type: functional
[27] = molecular target: Delta-type opioid receptor (Homo sapiens, UniProt P41143); experiment: as §1, with “of OPRD1” for “of OPRM1”, “homodimerization. [Related pubchem assays (depositor defined):AID504326, AID504355, AID504692, AID504904, AID504905]” for “homodimerization.”; assay type: functional
[28] = molecular target: T3, Microphthalmia-associated transcription factor (Homo sapiens, UniProt O75030); experiment: reducers of TRPM1 reporter luminescence, concentration series – cell-based, SK-MEL-5, cherry-picked, set 3, MITF inhibitor project, dose response (AID 493073); assay type: functional;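 also: SK-MEL-5 melanoma cells with luciferase driven by the MITF target TRPM1 promoter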
T3 sequence (O75030 whole entry): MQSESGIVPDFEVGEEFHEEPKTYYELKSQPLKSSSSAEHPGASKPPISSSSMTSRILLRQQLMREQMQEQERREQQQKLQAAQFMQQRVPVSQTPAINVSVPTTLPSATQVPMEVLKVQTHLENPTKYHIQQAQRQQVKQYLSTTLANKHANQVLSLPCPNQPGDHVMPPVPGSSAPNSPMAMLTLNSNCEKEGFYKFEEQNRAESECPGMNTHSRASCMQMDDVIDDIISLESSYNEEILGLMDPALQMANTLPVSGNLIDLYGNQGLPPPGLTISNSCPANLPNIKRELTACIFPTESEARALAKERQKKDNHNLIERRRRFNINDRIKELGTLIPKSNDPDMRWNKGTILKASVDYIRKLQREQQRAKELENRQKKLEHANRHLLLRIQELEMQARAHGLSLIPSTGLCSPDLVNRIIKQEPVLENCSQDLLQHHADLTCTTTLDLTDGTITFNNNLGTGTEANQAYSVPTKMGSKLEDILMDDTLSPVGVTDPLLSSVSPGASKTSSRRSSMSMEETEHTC

Sequence of Phospholipase D1 (Q13393 whole entry): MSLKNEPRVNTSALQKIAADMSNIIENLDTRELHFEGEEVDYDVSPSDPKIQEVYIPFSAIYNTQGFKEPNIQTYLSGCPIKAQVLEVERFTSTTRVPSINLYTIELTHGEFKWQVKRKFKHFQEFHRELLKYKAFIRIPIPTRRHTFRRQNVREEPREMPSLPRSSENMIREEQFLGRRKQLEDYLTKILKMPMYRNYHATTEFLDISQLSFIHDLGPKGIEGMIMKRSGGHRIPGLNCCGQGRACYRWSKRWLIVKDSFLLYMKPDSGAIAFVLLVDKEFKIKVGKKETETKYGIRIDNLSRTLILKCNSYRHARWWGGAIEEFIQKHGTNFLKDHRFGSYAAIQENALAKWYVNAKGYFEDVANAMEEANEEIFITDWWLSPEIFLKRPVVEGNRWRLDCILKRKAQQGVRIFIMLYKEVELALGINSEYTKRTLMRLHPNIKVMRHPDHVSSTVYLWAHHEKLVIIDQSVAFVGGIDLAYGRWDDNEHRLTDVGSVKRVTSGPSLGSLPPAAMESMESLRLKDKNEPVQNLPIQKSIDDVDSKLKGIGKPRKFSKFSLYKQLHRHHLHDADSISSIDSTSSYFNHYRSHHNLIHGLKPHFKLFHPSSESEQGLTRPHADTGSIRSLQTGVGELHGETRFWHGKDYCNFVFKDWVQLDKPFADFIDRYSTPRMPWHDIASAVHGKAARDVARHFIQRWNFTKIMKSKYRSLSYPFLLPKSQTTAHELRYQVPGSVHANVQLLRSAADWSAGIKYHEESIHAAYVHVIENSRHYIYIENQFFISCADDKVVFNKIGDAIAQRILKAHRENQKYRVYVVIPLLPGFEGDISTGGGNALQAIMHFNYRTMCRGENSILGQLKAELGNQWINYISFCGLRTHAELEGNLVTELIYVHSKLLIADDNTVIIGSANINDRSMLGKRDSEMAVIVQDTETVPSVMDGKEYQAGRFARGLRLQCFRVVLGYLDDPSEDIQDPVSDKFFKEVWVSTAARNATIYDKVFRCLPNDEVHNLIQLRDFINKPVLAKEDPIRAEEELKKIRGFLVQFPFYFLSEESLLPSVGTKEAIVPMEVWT
Sequence of 5-hydroxytryptamine receptor 5A (P47898 whole entry): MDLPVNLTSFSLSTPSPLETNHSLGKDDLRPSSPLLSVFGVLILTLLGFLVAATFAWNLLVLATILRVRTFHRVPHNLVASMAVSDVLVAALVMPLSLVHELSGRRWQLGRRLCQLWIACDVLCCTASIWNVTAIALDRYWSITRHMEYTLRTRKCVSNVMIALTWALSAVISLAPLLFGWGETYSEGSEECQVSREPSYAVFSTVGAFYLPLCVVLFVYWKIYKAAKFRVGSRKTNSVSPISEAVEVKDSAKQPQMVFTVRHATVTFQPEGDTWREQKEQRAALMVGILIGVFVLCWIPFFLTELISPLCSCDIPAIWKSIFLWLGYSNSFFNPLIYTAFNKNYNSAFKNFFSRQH
Sequence of G-protein coupled receptor 55 (Q9Y2T6 whole entry): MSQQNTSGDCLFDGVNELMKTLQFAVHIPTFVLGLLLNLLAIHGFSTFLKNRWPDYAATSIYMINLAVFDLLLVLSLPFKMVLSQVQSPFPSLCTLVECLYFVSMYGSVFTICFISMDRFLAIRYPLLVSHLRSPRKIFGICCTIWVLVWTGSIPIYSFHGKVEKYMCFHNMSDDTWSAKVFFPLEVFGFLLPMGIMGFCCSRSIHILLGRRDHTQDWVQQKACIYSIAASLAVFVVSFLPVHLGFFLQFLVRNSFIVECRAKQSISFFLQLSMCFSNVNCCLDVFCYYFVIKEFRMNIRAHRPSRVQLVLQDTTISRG
Sequence of Beta-2 adrenergic receptor (P07550 whole entry): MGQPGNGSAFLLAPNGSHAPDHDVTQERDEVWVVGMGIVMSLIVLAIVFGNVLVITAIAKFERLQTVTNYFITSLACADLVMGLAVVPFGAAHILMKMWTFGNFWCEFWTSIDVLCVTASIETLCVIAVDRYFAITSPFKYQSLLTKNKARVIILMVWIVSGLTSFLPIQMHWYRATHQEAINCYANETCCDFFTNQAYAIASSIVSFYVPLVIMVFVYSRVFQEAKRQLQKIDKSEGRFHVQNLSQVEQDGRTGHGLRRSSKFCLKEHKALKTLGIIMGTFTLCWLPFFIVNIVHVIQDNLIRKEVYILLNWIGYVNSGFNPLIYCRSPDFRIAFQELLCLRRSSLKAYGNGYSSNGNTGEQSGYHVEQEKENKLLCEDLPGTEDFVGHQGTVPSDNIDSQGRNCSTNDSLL
Sequence of CAAX prenyl protease 2 (Q9Y256 whole entry): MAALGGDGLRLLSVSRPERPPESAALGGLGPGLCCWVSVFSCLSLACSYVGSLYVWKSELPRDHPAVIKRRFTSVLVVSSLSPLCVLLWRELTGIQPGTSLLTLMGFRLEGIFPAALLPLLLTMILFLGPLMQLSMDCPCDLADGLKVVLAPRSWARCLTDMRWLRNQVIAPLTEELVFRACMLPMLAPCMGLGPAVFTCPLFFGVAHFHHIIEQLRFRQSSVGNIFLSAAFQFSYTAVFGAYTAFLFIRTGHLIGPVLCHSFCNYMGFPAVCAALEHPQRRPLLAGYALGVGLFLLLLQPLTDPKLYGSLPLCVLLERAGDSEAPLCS
Sequence of ATP-dependent molecular chaperone HSP82 (C4YTQ8 whole entry): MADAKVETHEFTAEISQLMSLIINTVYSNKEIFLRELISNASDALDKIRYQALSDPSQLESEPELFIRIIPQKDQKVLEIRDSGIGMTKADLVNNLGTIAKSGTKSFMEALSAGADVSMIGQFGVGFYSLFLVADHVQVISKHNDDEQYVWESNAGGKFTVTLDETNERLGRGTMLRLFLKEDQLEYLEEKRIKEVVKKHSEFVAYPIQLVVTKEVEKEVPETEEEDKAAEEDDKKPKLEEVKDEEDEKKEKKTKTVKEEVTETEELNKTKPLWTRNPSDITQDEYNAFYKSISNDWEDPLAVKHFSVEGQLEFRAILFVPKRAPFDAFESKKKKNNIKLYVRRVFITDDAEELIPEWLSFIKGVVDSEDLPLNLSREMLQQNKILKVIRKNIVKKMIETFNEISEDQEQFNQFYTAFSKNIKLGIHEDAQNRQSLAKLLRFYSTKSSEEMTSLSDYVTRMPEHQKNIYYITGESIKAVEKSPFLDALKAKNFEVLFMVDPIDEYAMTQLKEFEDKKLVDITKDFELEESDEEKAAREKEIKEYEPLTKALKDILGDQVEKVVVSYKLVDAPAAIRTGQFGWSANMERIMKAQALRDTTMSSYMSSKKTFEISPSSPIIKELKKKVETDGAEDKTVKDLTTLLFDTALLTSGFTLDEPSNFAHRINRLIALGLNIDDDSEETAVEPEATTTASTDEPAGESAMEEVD
Sequence of Serine/threonine-protein phosphatase (B9W6M3 whole entry): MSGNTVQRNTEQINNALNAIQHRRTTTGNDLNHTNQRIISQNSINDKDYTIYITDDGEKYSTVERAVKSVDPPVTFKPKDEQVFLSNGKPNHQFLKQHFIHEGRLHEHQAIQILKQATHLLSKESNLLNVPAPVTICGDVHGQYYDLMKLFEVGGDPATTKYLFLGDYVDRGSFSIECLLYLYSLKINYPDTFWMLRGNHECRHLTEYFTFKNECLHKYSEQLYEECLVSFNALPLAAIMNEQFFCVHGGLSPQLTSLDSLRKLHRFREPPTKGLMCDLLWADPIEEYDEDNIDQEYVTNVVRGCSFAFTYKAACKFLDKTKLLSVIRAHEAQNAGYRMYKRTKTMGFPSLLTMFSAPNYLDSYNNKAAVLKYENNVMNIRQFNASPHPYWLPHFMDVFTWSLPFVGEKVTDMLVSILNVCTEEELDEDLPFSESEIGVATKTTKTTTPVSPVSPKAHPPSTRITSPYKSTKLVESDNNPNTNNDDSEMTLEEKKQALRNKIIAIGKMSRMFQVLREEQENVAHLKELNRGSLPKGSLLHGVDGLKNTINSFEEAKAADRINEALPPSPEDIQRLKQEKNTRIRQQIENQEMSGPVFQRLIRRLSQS
Sequence of Mu-type opioid receptor (P35372 whole entry): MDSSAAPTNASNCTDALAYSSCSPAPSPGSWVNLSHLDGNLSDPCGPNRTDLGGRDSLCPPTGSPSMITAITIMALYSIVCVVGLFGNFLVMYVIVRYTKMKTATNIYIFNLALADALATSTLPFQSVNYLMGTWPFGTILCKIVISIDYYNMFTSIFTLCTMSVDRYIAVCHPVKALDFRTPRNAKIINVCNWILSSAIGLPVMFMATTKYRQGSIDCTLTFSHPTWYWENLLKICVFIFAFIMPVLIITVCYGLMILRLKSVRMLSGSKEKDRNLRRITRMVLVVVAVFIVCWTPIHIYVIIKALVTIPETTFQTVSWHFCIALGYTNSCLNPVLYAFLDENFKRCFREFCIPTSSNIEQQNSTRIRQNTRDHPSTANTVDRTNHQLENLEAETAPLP
Sequence of Delta-type opioid receptor (P41143 whole entry): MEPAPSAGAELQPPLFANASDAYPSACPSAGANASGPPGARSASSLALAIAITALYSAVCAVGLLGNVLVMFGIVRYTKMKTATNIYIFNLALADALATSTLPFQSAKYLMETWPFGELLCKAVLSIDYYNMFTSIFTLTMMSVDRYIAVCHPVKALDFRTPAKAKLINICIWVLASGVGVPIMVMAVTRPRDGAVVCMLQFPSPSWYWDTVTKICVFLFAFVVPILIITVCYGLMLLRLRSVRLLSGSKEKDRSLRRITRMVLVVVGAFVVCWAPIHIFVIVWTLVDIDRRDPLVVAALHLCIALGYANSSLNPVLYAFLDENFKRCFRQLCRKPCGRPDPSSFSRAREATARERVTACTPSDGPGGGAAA

O=C(O)/C=C\C(=O)NC1CCCCC1
AC50 [1]: 54.1 µM (active)

COc1ccc(C2C(C#N)=C(N)Oc3c2sc2nc(C)cc(C)c32)cc1 (centres undefined)
EC50 [2]: 3.41 µM (active) | EC50 [3]: 4.6 µM (active) | EC50 [4]: 9.58 µM (inactive) | EC50 [5]: 5.01 µM (active)

CCOC(=O)C1CCCN(S(=O)(=O)c2cc3nc(O)c(O)nc3cc2C)C1 (centres undefined)
AC50 (CAAX prenyl protease 2): 21.8 µM (active)

CCN(CC)S(=O)(=O)c1ccc2c(c1)C(=NO)c1cc(S(=O)(=O)N(CC)CC)ccc1-2
AC50 [6]: 0.742 µM (active) | EC50 [3]: 6.41 µM (active) | EC50 [7]: 1.6 µM (active) | EC50 [8]: 0.84 µM (active) | EC50 [5]: 7.08 µM (active) | EC50 (HEK293 [9]): > 59.6 µM (inactive) | EC50 [10]: < 6 µM (inconclusive) | EC50 (HEK293 [11]): > 59.6 µM (inactive) | CC50 [12]: 9.81 µM (active) | IC50 (cells): 5.19 µM (active)

Oc1c(N=NC(S)=Nc2ccccc2F)c2ccccc2n1Cc1ccccc1
EC50 (Streptokinase A): > 150 µM (not active) | IC50 [13]: 6.95 µM (active) | IC50 [14]: 10.1 µM (inactive) | EC50 [15]: 0.89 µM (active) | AC50 (HEK293 [16]): 3.07 µM (active) | EC50 (Streptococcus): 6.93 µM (active) | EC50 [17]: 0.562 µM (active)

CCOc1ccccc1-c1nc(-c2ccc(C)nc2OC)no1
AC50 (A-375 [18]): > 35 µM (active) | AC50 (A-375 [19]): > 35 µM (active)

CC(=O)Nc1c(C#N)c(-c2ccccc2)c(C#N)c(=O)n1-c1ccc(C)cc1
EC50 [20]: 129 µM (active)

C[C@@H](CN1CCC(n2c(=O)[nH]c3cc(F)ccc32)CC1)NC(=O)c1ccc(F)c(F)c1
IC50 (Phospholipase D1): 0.012 µM (active) | IC50 (Phospholipase D2): 0.84 µM (active)

COC(=O)Cn1nc(-c2ccc(C)cc2)c2ccccc21
AC50 (Candida albicans): 1.45 µM (active)

CCOc1ccc(NC(S)=NNC(=O)c2ccc(Br)cc2)cc1
EC50 [21]: > 160 µM (inactive) | EC50 [22]: 0.688 µM (active) | EC50 [23]: > 180 µM (inactive) | IC50 [24]: > 50 µM (not active) | EC50 [25]: > 160 µM (inactive)

Cc1ccc(NC(=O)c2ncn(CCCN[C@H](C)c3cccc4ccccc34)n2)cc1C
EC50 (Mu-type opioid receptor): > 10.3 µM (inactive) | EC50 [26]: > 92.4 µM (inactive) | EC50 [27]: > 92.4 µM (inactive) | AC50 [28]: 22.7 µM (active) | AC50 (A-375 [19]): 25.8 µM (active)

From ChEMBL document CHEMBL1201862, “PubChem BioAssay data set” (2004)
